# From ChEMBL document CHEMBL1201862, “PubChem BioAssay data set” (2004)
#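 Test compounds were applied to cells in 96-well plates for 48 hours at 5 doses. GI50 = concentration required for 50% inhibition of growth.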 Activity calls are given as the source filed them. No stated cut-off is given here; in the data, active = GI50 up to about 1.1 µM and inactive = higher.
# Tests used:
# Assay in all cases: inhibition of tumour cell growth, NCI panel, 48 h
# HOP-62 = test system: HOP-62
# EKVX = test system: EKVX
# SW-620 = test system: SW-620
# NCI-H23 = test system: NCI-H23
# PC-3 = test system: PC-3
# NCI-H460 = test system: NCI-H460
# SK-MEL-28 = test system: SK-MEL-28
# U-251 = test system: U-251
# OVCAR-8 = test system: OVCAR-8
# KM12 = test system: KM12
# HCT-15 = test system: HCT-15
# SK-OV-3 = test system: SK-OV-3
# ACHN = test system: ACHN
# HOP-92 = test system: HOP-92
# UO-31 = test system: UO-31
# T47D = test system: T47D
# 786-0 = test system: 786-0
# Malme-3M = test system: Malme-3M
# NCI-H226 = test system: NCI-H226
# MDA-MB-435 = test system: MDA-MB-435
# LOX IMVI = test system: LOX IMVI
# HL-60 = test system: HL-60
# SF-268 = test system: SF-268
# NCI-H522 = test system: NCI-H522
# NCI/ADR-RES = test system: NCI/ADR-RES
# SNB-19 = test system: SNB-19
# MDA-MB-231 = test system: MDA-MB-231
# OVCAR-4 = test system: OVCAR-4
# A549 = test system: A549
# BT-549 = test system: BT-549
# UACC-62 = test system: UACC-62
# OVCAR-5 = test system: OVCAR-5
# HCC 2998 = test system: HCC 2998
# SN12C = test system: SN12C
# SF-539 = test system: SF-539
# A498 = test system: A498
# CCRF-CEM = test system: CCRF-CEM
# SK-MEL-5 = test system: SK-MEL-5
# OVCAR-3 = test system: OVCAR-3
# TK-10 = test system: TK-10
# IGROV-1 = test system: IGROV-1
# M14 = test system: M14
# MCF7 = test system: MCF7
# RXF 393 = test system: RXF 393
# SR = test system: SR
# SNB-75 = test system: SNB-75
# HCT-116 = test system: HCT-116
# MDA-N = test system: MDA-N
# HT-29 = test system: HT-29
# RPMI-8226 = test system: RPMI-8226
# CAKI-1 = test system: CAKI-1
# DU-145 = test system: DU-145
# UACC-257 = test system: UACC-257
# MOLT-4 = test system: MOLT-4
# SF-295 = test system: SF-295
# K562 = test system: K562
# COLO 205 = test system: COLO 205
# Hs-578T = test system: Hs-578T
# SK-MEL-2 = test system: SK-MEL-2
compound,measurement,setting,value
C[C@@H]1CC[C@@]2(NC1)O[C@H]1C[C@H]3[C@@H]4CC[C@H]5C[C@@H](O)CC[C@]5(C)[C@H]4CC[C@]3(C)[C@H]1[C@@H]2C,GI50,HOP-62,64.4 µM (inactive)
same,GI50,EKVX,> 100 µM (inactive)
same,GI50,SW-620,88.9 µM (inactive)
same,GI50,NCI-H23,77.3 µM (inactive)
same,GI50,PC-3,82.4 µM (inactive)
same,GI50,NCI-H460,54.3 µM (inactive)
same,GI50,SK-MEL-28,> 100 µM (inactive)
same,GI50,U-251,61.2 µM (inactive)
same,GI50,OVCAR-8,21.5 µM (inactive)
same,GI50,KM12,27.3 µM (inactive)
same,GI50,HCT-15,36.9 µM
same,GI50,SK-OV-3,27.4 µM (inactive)
same,GI50,ACHN,33.6 µM (inactive)
same,GI50,HOP-92,93.5 µM (inactive)
same,GI50,UO-31,42.3 µM (inactive)
same,GI50,T47D,> 100 µM (inactive)
same,GI50,786-0,31.6 µM (inactive)
same,GI50,Malme-3M,> 100 µM (inactive)
same,GI50,NCI-H226,> 100 µM (inactive)
same,GI50,MDA-MB-435,> 100 µM (inactive)
same,GI50,LOX IMVI,32.7 µM (inactive)
same,GI50,HL-60,21.6 µM (inactive)
same,GI50,SF-268,> 100 µM (inactive)
same,GI50,NCI-H522,> 100 µM (inactive)
same,GI50,NCI/ADR-RES,30.8 µM (inactive)
same,GI50,SNB-19,30.6 µM (inactive)
same,GI50,MDA-MB-231,38.1 µM (inactive)
same,GI50,OVCAR-4,26.8 µM (inactive)
same,GI50,A549,> 100 µM (inactive)
same,GI50,BT-549,> 100 µM (inactive)
same,GI50,UACC-62,57.3 µM (inactive)
same,GI50,OVCAR-5,> 100 µM (inactive)
same,GI50,HCC 2998,37.2 µM (inactive)
same,GI50,SN12C,55.5 µM (inactive)
same,GI50,SF-539,25.3 µM (inactive)
same,GI50,A498,68.7 µM (inactive)
same,GI50,CCRF-CEM,> 100 µM (inactive)
same,GI50,SK-MEL-5,42.1 µM (inactive)
same,GI50,OVCAR-3,61.7 µM (inactive)
same,GI50,TK-10,35.3 µM (inactive)
same,GI50,IGROV-1,90.2 µM (inactive)
same,GI50,M14,65.2 µM (inactive)
same,GI50,MCF7,51.5 µM (inactive)
same,GI50,RXF 393,> 100 µM (inactive)
same,GI50,SR,35.5 µM (inactive)
same,GI50,SNB-75,61.9 µM (inactive)
same,GI50,HCT-116,45.5 µM (inactive)
same,GI50,MDA-N,36 µM (inactive)
same,GI50,HT-29,57.4 µM (inactive)
same,GI50,RPMI-8226,31.2 µM (inactive)
same,GI50,CAKI-1,> 100 µM (inactive)
same,GI50,DU-145,> 100 µM (inactive)
same,GI50,UACC-257,> 100 µM (inactive)
same,GI50,MOLT-4,> 100 µM (inactive)
same,GI50,SF-295,35.5 µM (inactive)
same,GI50,K562,63.1 µM (inactive)
same,GI50,COLO 205,57.1 µM (inactive)
same,GI50,Hs-578T,46 µM (inactive)
same,GI50,SK-MEL-2,> 100 µM (inactive)
COc1ccc(C(=O)Nc2ccc3oc(-c4ccccc4)nc3c2)cc1,GI50,HOP-62,76.6 µM (inactive)
same,GI50,EKVX,> 100 µM (inactive)
same,GI50,SW-620,> 100 µM (inactive)
same,GI50,NCI-H23,> 100 µM (inactive)
same,GI50,PC-3,> 100 µM (inactive)
same,GI50,NCI-H460,> 100 µM (inactive)
same,GI50,SK-MEL-28,> 100 µM (inactive)
same,GI50,U-251,61.7 µM (inactive)
same,GI50,OVCAR-8,22.3 µM (inactive)
same,GI50,KM12,> 100 µM (inactive)
same,GI50,HCT-15,> 100 µM
same,GI50,SK-OV-3,56.4 µM (inactive)
same,GI50,ACHN,> 100 µM (inactive)
same,GI50,HOP-92,> 100 µM (inactive)
same,GI50,UO-31,0.227 µM (active)
same,GI50,T47D,> 100 µM (inactive)
same,GI50,786-0,92.7 µM (inactive)
same,GI50,Malme-3M,> 100 µM (inactive)
same,GI50,NCI-H226,> 100 µM (inactive)
same,GI50,MDA-MB-435,> 100 µM (inactive)
same,GI50,LOX IMVI,> 100 µM (inactive)
same,GI50,HL-60,> 100 µM (inactive)
same,GI50,SF-268,> 100 µM (inactive)
same,GI50,NCI-H522,> 100 µM (inactive)
same,GI50,NCI/ADR-RES,70.1 µM (inactive)
same,GI50,SNB-19,50.5 µM (inactive)
same,GI50,MDA-MB-231,> 100 µM (inactive)
same,GI50,OVCAR-4,> 100 µM (inactive)
same,GI50,A549,> 100 µM (inactive)
same,GI50,BT-549,> 100 µM (inactive)
same,GI50,UACC-62,> 100 µM (inactive)
same,GI50,OVCAR-5,> 100 µM (inactive)
same,GI50,HCC 2998,> 100 µM (inactive)
same,GI50,SN12C,> 100 µM (inactive)
same,GI50,SF-539,32.5 µM (inactive)
same,GI50,A498,> 100 µM (inactive)
same,GI50,CCRF-CEM,> 100 µM (inactive)
same,GI50,SK-MEL-5,> 100 µM (inactive)
same,GI50,OVCAR-3,> 100 µM (inactive)
same,GI50,TK-10,> 100 µM (inactive)
same,GI50,IGROV-1,> 100 µM (inactive)
same,GI50,M14,> 100 µM (inactive)
same,GI50,MCF7,> 100 µM (inactive)
same,GI50,RXF 393,> 100 µM (inactive)
same,GI50,SR,> 100 µM (inactive)
same,GI50,SNB-75,29 µM (inactive)
same,GI50,HCT-116,> 100 µM (inactive)
same,GI50,MDA-N,> 100 µM (inactive)
same,GI50,HT-29,> 100 µM (inactive)
same,GI50,RPMI-8226,> 100 µM (inactive)
same,GI50,CAKI-1,> 100 µM (inactive)
same,GI50,DU-145,> 100 µM (inactive)
same,GI50,UACC-257,> 100 µM (inactive)
same,GI50,MOLT-4,> 100 µM (inactive)
same,GI50,SF-295,> 100 µM (inactive)
same,GI50,K562,> 100 µM (inactive)
same,GI50,COLO 205,> 100 µM (inactive)
same,GI50,Hs-578T,> 100 µM (inactive)
same,GI50,SK-MEL-2,> 100 µM (inactive)
